# Measured values from ChEMBL document CHEMBL3046585, “Antifungal activity of a novel quercetin derivative bearing a trifluoromethyl group on Candida albicans” (Med Chem Res, 2012).
# Active and inactive are the calls of the source. No cut-off for these calls is given here.
# Columns and labels:
# Candida albicans [1] = test: Antifungal activity against Candida albicans PC31 at 0.15 mg/ml after 48 hr; format: functional, organism-based
# [2] = 1-octanol-water partition coefficient, log P of the compound; format: physicochemical
# Candida albicans [3] = test: Antifungal activity against Candida albicans PC31 at 2.10 mg/ml after 48 hr; format: functional, organism-based
# Candida albicans [4] = test: Antifungal activity against Candida albicans PC31 at 2.20 mg/ml after 48 hr; format: functional, organism-based
# Candida albicans [5] = test: Antifungal activity against Candida albicans PC31 at 1.25 mg/ml after 48 hr; format: functional, organism-based
# Candida albicans [6] = test: Antifungal activity against Candida albicans PC31 at 0.06 mg/ml after 48 hr; format: functional, organism-based
# Candida albicans [7] = test: Antifungal activity against Candida albicans PC31 at 0.50 mg/ml after 48 hr; format: functional, organism-based
# Candida albicans [8] = test: Antifungal activity against Candida albicans PC31 at 0.40 mg/ml after 48 hr; format: functional, organism-based
# Candida albicans [9] = test: Antifungal activity against Candida albicans PC31 at 0.60 mg/ml after 48 hr; format: functional, organism-based
# Candida albicans [10] = test: Antifungal activity against Candida albicans PC31 at 1.30 mg/ml after 48 hr; format: functional, organism-based
# Candida albicans [11] = test: Antifungal activity against Candida albicans PC31 at 2.50 mg/ml after 48 hr; format: functional, organism-based
# Candida albicans [12] = test: Antifungal activity against Candida albicans PC31 at 1.90 mg/ml after 48 hr; format: functional, organism-based
# Candida albicans [13] = test: Antifungal activity against Candida albicans PC31 at 1.60 mg/ml after 48 hr; format: functional, organism-based
# Candida albicans [14] = test: Antifungal activity against Candida albicans PC31 at 0.30 mg/ml after 48 hr; format: functional, organism-based
logP [2],Compound,Activity (Candida albicans [1]),Activity (Candida albicans [3]),Activity (Candida albicans [4]),Activity (Candida albicans [5]),Activity (Candida albicans [6]),Activity (Candida albicans [7]),Activity (Candida albicans [8]),Activity (Candida albicans [9]),Activity (Candida albicans [10]),Activity (Candida albicans [11]),Activity (Candida albicans [12]),Activity (Candida albicans [13]),Activity (Candida albicans [14])
0.62,O=c1c(O)c(-c2ccc(O)c(Oc3c([N+](=O)[O-])cc(C(F)(F)F)cc3[N+](=O)[O-])c2)oc2cc(O)cc(O)c12,inactive,Active,Active,Active,inactive,inactive,inactive,Active,Active,Active,Active,Active,inactive
0.31,C[C@@H]1O[C@@H](OC[C@H]2O[C@@H](Oc3c(-c4ccc(O)c(O)c4)oc4cc(O)cc(O)c4c3=O)[C@H](O)[C@@H](O)[C@@H]2O)[C@H](O)[C@H](O)[C@H]1O [RUTIN],inactive,inactive,Active,inactive,inactive,inactive,inactive,inactive,inactive,Active,inactive,inactive,inactive
